Source: patent publication US12392778B2, “Method for proteome-wide discovery of covalent ligands and compositions thereof” (BridGene Biosciences, Inc., priority 2019, dated 2025)

Tested on: SK-MEL-28 tumor cells
Experiment: Melanoma CDX model, SK-MEL-28 tumor growth
Assay type: in vivo, BALB/c nude mice
Details: 60 mg/kg subcutaneously twice a day for 5 days, then once a day for 9 days; not statistically significant
Experimental: For this model, BALB/c nude mice were inoculated subcutaneously (sc) with SK-MEL-28 tumor cells (5×10^6 in 0.1 mL PBS and Matigel, 1:1). […] Throughout the treatment period, tumor sizes were recorded. […] Vehicle control consisted of 5% DMSO and 95% of a 20% 2-hydroxypropyl-beta-cyclodextrin solution. Eight female mice were included in each group. t-test was done using GraphPad Software.

For C#CCOc1cccc(Nc2ncnc3ccc(NC(=O)CCl)cc23)c1 [Compound 1], the “Tumor size compared to control” value was “reduce tumor size compared to control starting at day 8”.
